Usually pIC50 stands for the negative decadic logarithm of the IC50, by convention in mol/L.

pIC50: −log10 of the molar value.

For assay [1], the target named is Glycogen synthase kinase-3 alpha (Homo sapiens, UniProt P49840). Put plainly: Inhibition of N-terminal GST-tagged full-length recombinant human GSK-3alpha extracted from baculovirus infected Sf9 cells using biotinylated-phosphorylated glycogen synthase incubated for 100 mins in presence of ATP by TR-FRET assay. In general terms: In TR-FRET formats the signal depends on donor and acceptor labels being close together.
Sequence of Glycogen synthase kinase-3 alpha (P49840 whole entry): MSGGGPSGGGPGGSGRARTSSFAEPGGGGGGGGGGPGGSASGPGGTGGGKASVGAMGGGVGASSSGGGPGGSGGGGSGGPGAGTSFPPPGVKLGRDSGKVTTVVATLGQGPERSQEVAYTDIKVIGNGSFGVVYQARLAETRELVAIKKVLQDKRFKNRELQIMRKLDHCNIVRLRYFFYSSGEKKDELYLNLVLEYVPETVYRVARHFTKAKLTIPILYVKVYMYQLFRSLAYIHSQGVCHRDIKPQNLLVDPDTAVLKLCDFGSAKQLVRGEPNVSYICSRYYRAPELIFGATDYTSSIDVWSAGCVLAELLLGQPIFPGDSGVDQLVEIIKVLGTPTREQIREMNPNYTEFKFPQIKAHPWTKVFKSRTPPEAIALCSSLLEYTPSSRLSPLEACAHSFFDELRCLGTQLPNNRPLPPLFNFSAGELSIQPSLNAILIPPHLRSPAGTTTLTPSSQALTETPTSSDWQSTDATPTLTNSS

Assay [2] deals with Glycogen synthase kinase-3 beta (Homo sapiens, UniProt P49841). The assay is described as follows: Inhibition of N-terminal GST-tagged full-length recombinant human GSK-3beta extracted from baculovirus infected Sf9 cells using biotinylated-phosphorylated glycogen synthase incubated for 100 mins in presence of ATP by TR-FRET assay.
Sequence of Glycogen synthase kinase-3 beta (P49841 whole entry): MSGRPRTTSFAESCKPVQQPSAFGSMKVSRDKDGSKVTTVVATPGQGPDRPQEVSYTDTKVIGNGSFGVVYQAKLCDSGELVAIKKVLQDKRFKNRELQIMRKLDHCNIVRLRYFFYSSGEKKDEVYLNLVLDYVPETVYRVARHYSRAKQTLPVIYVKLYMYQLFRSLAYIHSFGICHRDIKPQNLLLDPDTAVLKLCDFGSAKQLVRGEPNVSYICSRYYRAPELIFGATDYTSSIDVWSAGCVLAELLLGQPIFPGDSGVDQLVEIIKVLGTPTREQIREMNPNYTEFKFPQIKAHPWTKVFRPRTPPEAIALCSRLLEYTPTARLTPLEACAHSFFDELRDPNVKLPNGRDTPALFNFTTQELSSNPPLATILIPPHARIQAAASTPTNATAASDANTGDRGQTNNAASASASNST

In the case of `CC[C@]1(c2cccc(OC(C)C)c2)C2=C(CC(C)(C)CC2=O)Nc2n[nH]c(C(F)(F)F)c21`, the pIC50 in assay [1] and in assay [2] was not below 7.00 throughout.
Turning to `CCC1(c2cccc(N3CC4CCC(C4)C3)c2)C2=C(CC(C)(C)CC2=O)Nc2n[nH]cc21` (configuration not stated), the figures for the pIC50 in assay [1] and in assay [2] were less than 7.00 and less than 6.00, respectively.
For `CC[C@@]1(c2cccc(S(=O)(=O)C3CC3)c2)C2=C(CC(C)(C)CC2=O)Nc2n[nH]c(C(F)(F)F)c21` the same measures were not below 7.00 and not below 7.00.
`CC[C@@]1(c2cccc(-c3cc(C)ncc3C)c2)C2=C(CC(C)(C)CC2=O)Nc2n[nH]c(C(F)(F)F)c21`: the pIC50 in assay [1] and in assay [2] was less than 7.00 each time.
Take `CC[C@@]1(c2cccc(-c3cncn3C)c2)C2=C(CC(C)(C)NC2=O)Nc2n[nH]c(C(F)(F)F)c21`: the pIC50 in assay [1] and in assay [2] was not below 7.00 throughout.
With `CC[C@@]1(c2cccc(C(F)(F)F)c2)C2=C(Nc3n[nH]cc31)[C@H](F)C(C)(C)CC2=O`, the negative-log IC50 (pIC50) in assay [1] and in assay [2] was not below 7.00 each time.
